Experimental data as given in patent publication US4113774A, “N-(Dichloroacetyl) diamine compounds and process of preparing same” (Sterling Drug Inc., priority 1977, dated 1978).
pIC50: −log10 of the molar value.

Key:
[1] = biological target: liver acetaldehyde dehydrogenase; assay: Inhibition of liver acetaldehyde dehydrogenase (I50); type: biochemical; details: bovine liver enzyme, propionaldehyde substrate, NAD, pH 9.6, 26.0 °C, 15 minutes; read-out: I50 values (molar concentration for 50% inhibition) for inhibition of liver acetaldehyde dehydrogenase
Excerpt: The specific activity of the partially purified enzyme preparation was 172 units per milligram of protein. The assay system contained 30μ moles of sodium pyrophosphate buffer with a final pH of 9.6, 135μ moles of propylene glycol to serve as a vehicle for the compound being tested, 0.5μ mole of propionaldehyde, 1μ mole of nicotinamide adenine dinucleotide and 120 units of enzyme to initiate the reaction in a total volume of 3.0 milliliters. The assay mixture was contained in 1 centimeter silica cuvettes. The reaction was followed by measuring the increase in optical density at 340 mμ with time on the Beckman du spectrophotometer which was equipped with dual thermospacers set to maintain the temperature of the cell compartment at 26.0 ± 0.1° C. by means of a circulating water bath (Haake Thermostat F, Berlin). Readings of optical density were taken each minute for 15 minutes. The optical density at 15 minutes corrected for optical density at zero time was used to calculate percent inhibition compared with controls which contained all constituents except the compound being tested. Fifty percent inhibition values (I50) were determined from first order reaction plots at multiple levels of the tested compound. Sodium pyrophosphate changes pH when diluted with the other reaction constitutents in water; so, this effect was compensated for to bring the final pH of the incubation mixture to 9.6.

[2] = system: antispermatogenic activity; details: Coulston et al.; Surrey U.S. Pat. No. 3,143,566; cited from earlier work
aldehyde dehydrogenase = details: cited from earlier work; for effectiveness compared with disulfiram: evaluation said to considerably underestimate effectiveness
[3] = man and animals; cited from earlier work
[4] = system: antispermatogenic activity; details: cited from earlier work
E. criceti = details: cited from earlier work
spermatogenesis = details: cited from earlier work

SMILES | pIC50 [1] | effectiveness compared with disulfiram (aldehyde dehydrogenase) | side effect [3] | also measured
O=C(NCCCCCCCCNC(=O)C(Cl)Cl)c1ccc(Cl)c(Cl)c1 [Example B-2, N-(Dichloroacetyl)-N'-(3,4-dichlorobenzoyl)-1,8-octanediamine] | 6.09 | – | – | –
O=C(NCCCCCCCCNC(=O)C(Cl)Cl)C(Cl)Cl [Win 18,466, N,N'-Bis(dichloroacetyl)-1,8-octanediamine] | – | about as effective as disulfiram | a reaction to ethanol in man and animals | antispermatogenic activity [2]: highly antispermatogenically-active; inhibitor of aldehyde dehydrogenase (aldehyde dehydrogenase): to be an inhibitor of aldehyde dehydrogenase; antispermatogenic activity in rats [4]: to have antispermatogenic activity in rats; in vivo amebicidal activity against E. criceti in hamsters (E. criceti): not to have in vivo amebicidal activity; suppression of spermatogenesis in man (spermatogenesis): to suppress spermatogenesis in man
O=C(NCCCCCCCCNC(=O)C(Cl)Cl)c1ccc(Cl)cc1 [Example B-1, N-(dichloroacetyl)-N'-(4-chlorobenzoyl)-1,8-octanediamine] | 5.57 | – | – | –
CCN(CC)C(=S)SSC(=S)N(CC)CC [disulfiram, bis(diethylthiocarbamoyl) disulfide] | 4.89 | – | – | –
CCN(Cc1ccc(CN(CC)C(=O)C(Cl)Cl)cc1)C(=O)C(Cl)Cl [Win 13,099, N,N'-bis(dichloroacetyl)-N,N'-diethyl-1,4-bis(aminomethyl)benzene] | – | about as effective as disulfiram | a reaction to ethanol in man and animals | –
